Measured values taken from patent US20020137929A1, “1 - (3-heterocyclylphenyl) isothiourea, -isourea, -guanidine and -amidine herbicidal agents” (Intellectual Property Department, BASF Aktiengesellschaft, priority 1998, published 2002).

What was measured:
[1] = tested on: CHEAL (Lambsquarters, Common); experiment: Preemergence herbicidal evaluation; type: in vivo, Chenopodium album; settings: rated 4-5 weeks after treatment; for CHEAL rating: preemergence, 0-9 scale
Outline: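 Each species is sown separately in potting soil over roughly an inch of soil before any emergence. The soil surface then receives an aqueous acetone spray delivering about 0.0156 to 0.500 kg/ha of compound. After four to five weeks, injury is scored from 0 to 9 relative to a control.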

GALAP (Galium) = experiment: Postemergence herbicidal evaluation; type: in vivo, Galium aparine; settings: postemergence
Outline: (§1)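 First, seedlings were raised for around two weeks. Next, test material in 50/50 acetone/water containing 0.5% TWEEN 20 was sprayed through a nozzle at 40 psi, equivalent to about 0.0156–0.500 kg/ha. Finally, after 4–5 weeks in the greenhouse, plants were rated 0–9.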

[2] = tested on: TRZAWR (Wheat, Winter, cv Riband); experiment: Postemergence herbicidal evaluation; type: in vivo, Triticum aestivum; settings: postemergence
Outline: as §1

AMBEL (Ragweed, Common) = experiment: Postemergence herbicidal evaluation; type: in vivo, Ambrosia artemisifolia; settings: postemergence
Outline: as §1

MOOVA (Monochoria) = experiment: Postemergence weed control under flooded paddy conditions; type: in vivo, Monochoria vaginalis; settings: postemergence weeds, rated 3 to 4 weeks after treatment
Outline: (§2)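 Herbicidal effect is judged by eye on a 0–9 scale versus control, 3–4 weeks after dosing. Dosing is into flood water kept 1.5–3 cm over the soil, at about 0.0313–0.500 kg/ha in aqueous/acetone 50/50 v/v, on 3–5 cm weeds and 1.5–2.5-leaf rice seedlings.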

[3] = tested on: SAGPY (Arrowhead (Pygmaea)); experiment: as above; type: in vivo, Sagittaria pygmaea; settings: postemergence weeds, rated 3 to 4 weeks after treatment
Outline: as §2

Row | Structure (SMILES) | GALAP herbicidal rating (GALAP (Galium); rate 0.0158 kg/ha) | GALAP herbicidal rating (GALAP (Galium); rate 0.0315 kg/ha) | GALAP herbicidal rating (GALAP (Galium); rate 0.0630 kg/ha) | TRZAWR herbicidal rating ([2]; rate 0.0158 kg/ha) | TRZAWR herbicidal rating ([2]; rate 0.0315 kg/ha) | TRZAWR herbicidal rating ([2]; rate 0.0630 kg/ha) | AMBEL herbicidal rating (AMBEL (Ragweed, Common); rate 0.0158 kg/ha) | AMBEL herbicidal rating (AMBEL (Ragweed, Common); rate 0.0315 kg/ha) | AMBEL herbicidal rating (AMBEL (Ragweed, Common); rate 0.0630 kg/ha) | Herbicidal rating MOOVA (MOOVA (Monochoria); Rate 0.0313 kg/ha) | Herbicidal rating MOOVA (MOOVA (Monochoria); Rate 0.0625 kg/ha) | Herbicidal rating MOOVA (MOOVA (Monochoria); Rate 0.1250 kg/ha) | Herbicidal rating MOOVA (MOOVA (Monochoria); Rate 0.2500 kg/ha) | Herbicidal rating SAGPY ([3]; Rate 0.0313 kg/ha) | Herbicidal rating SAGPY ([3]; Rate 0.0625 kg/ha) | Herbicidal rating SAGPY ([3]; Rate 0.1250 kg/ha) | Herbicidal rating SAGPY ([3]; Rate 0.2500 kg/ha) | CHEAL rating ([1]; 0.0313 kg/ha) | CHEAL rating ([1]; 0.1250 kg/ha) | CHEAL rating ([1]; 0.2500 kg/ha) | also measured
1 | C#CCOC(=O)CC1SC(=Nc2cc(-n3c(=O)cc(C(F)(F)F)n(C)c3=O)c(F)cc2Cl)N(CC=C)C1=O (stereo not drawn) [Compound 67, 2-Propynyl 3-allyl-2-{{2-chloro-5-[3,6-dihydro-3-methyl-2,6-dioxo-4-(trifluoromethyl)-1(2H)-pyrimidinyl]-4-fluorophenyl}imino}-4-oxo-5-thiazolidineacetate] | 2.9 | 6.0 | 5.0 | 5.0 | 6.0 | 6.5 | 6.0 | 7.0 | 7.0 | 9.0 | 9.0 | 9.0 | 9.0 | 0.0 | 4.0 | 4.0 | 6.0 | – | – | – | Preemergence herbicidal rating CHEAL ([1]; rate 0.0156 kg/ha): 2.0; Preemergence herbicidal rating CHEAL ([1]; rate 0.0313 kg/ha): 9.0; Preemergence herbicidal rating CHEAL ([1]; rate 0.0625 kg/ha): 9.0; Preemergence herbicidal rating CHEAL ([1]; rate 0.1250 kg/ha): 9.0; Preemergence herbicidal rating CHEAL ([1]; rate 0.2500 kg/ha): 9.0
2 | CCOC(=O)CN1C(=O)C(CC(=O)Nc2ccccc2)SC1=Nc1cc(-n2c(=O)cc(C(F)(F)F)n(C)c2=O)c(F)cc1Cl (stereo not drawn) [Compound 68, Ethyl 2-{{2-chloro-5-[3,6-dihydro-3-methyl-2,6-dioxo-4-(trifluoromethyl)-1(2H)-pyrimidinyl]-4-fluorophenyl}imino}-4-oxo-5-[(phenylcarbamoyl)-methyl]-3-thiazolidineacetate] | 2.0 | 3.0 | 4.0 | 3.0 | 3.5 | 4.0 | 9.0 | 9.0 | 9.0 | 3.0 | 9.0 | 9.0 | 9.0 | 0.0 | 0.0 | 0.0 | 3.0 | – | – | – | Preemergence herbicidal rating CHEAL ([1]; rate 0.0156 kg/ha): 2.0; Preemergence herbicidal rating CHEAL ([1]; rate 0.0313 kg/ha): 9.0; Preemergence herbicidal rating CHEAL ([1]; rate 0.0625 kg/ha): 9.0; Preemergence herbicidal rating CHEAL ([1]; rate 0.1250 kg/ha): 9.0; Preemergence herbicidal rating CHEAL ([1]; rate 0.2500 kg/ha): 9.0
3 | CCOC(=O)CN1C(=O)C(CC(=O)NOC)SC1=Nc1cc(-n2c(=O)cc(C(F)(F)F)n(C)c2=O)c(F)cc1Cl (stereo not drawn) [Compound 83, Ethyl 2-{{2-chloro-5-[3,6-dihydro-3-methyl-2,6-dioxo-4-(trifluoromethyl)-1(2H)-pyrimidinyl]-4-fluorophenyl}imino}-5-[(methoxycarbamoyl)methyl]-4-oxo-3-thiazolidineacetate] | – | – | – | – | – | – | – | – | – | 9.0 | 9.0 | 9.0 | 9.0 | 7.0 | 7.0 | 7.0 | 9.0 | 9.0 | 9.0 | 9.0 | CHEAL rating ([1]; 0.0156 kg/ha): 9.0; CHEAL rating ([1]; 0.0625 kg/ha): 9.0; CHEAL rating ([1]; 0.5000 kg/ha): 9.0; GALAP herbicidal rating (GALAP (Galium); rate 0.0156 kg/ha): 0.0; GALAP herbicidal rating (GALAP (Galium); rate 0.0313 kg/ha): 0.0; GALAP herbicidal rating (GALAP (Galium); rate 0.0625 kg/ha): 3.0; GALAP herbicidal rating (GALAP (Galium); rate 0.1250 kg/ha): 5.0; TRZAWR herbicidal rating ([2]; rate 0.0156 kg/ha): 3.5; TRZAWR herbicidal rating ([2]; rate 0.0313 kg/ha): 4.0; TRZAWR herbicidal rating ([2]; rate 0.0625 kg/ha): 4.5; TRZAWR herbicidal rating ([2]; rate 0.1250 kg/ha): 6.5; AMBEL herbicidal rating (AMBEL (Ragweed, Common); rate 0.0156 kg/ha): 9.0; AMBEL herbicidal rating (AMBEL (Ragweed, Common); rate 0.0313 kg/ha): 9.0; AMBEL herbicidal rating (AMBEL (Ragweed, Common); rate 0.0625 kg/ha): 9.0; AMBEL herbicidal rating (AMBEL (Ragweed, Common); rate 0.1250 kg/ha): 9.0
4 | C=CCN1C(=O)C(CC(=O)NC)SC1=Nc1cc(-n2c(=O)cc(C(F)(F)F)n(C)c2=O)c(F)cc1Cl (stereo not drawn) [Compound 84, 3-Allyl-2-{{2-chloro-5-[3,6-dihydro-3-methyl-2,6-dioxo-4-(trifluoromethyl)-1(2H)-pyrimidinyl]-4-fluorophenyl}imino}-N-methyl-4-oxo-5-thiazolidineacetamide] | – | – | – | – | – | – | – | – | – | 9.0 | 9.0 | 9.0 | 9.0 | 2.0 | 6.0 | 7.0 | 9.0 | 9.0 | 9.0 | 9.0 | CHEAL rating ([1]; 0.0156 kg/ha): 5.0; CHEAL rating ([1]; 0.0625 kg/ha): 9.0; CHEAL rating ([1]; 0.5000 kg/ha): 9.0; GALAP herbicidal rating (GALAP (Galium); rate 0.0156 kg/ha): 1.0; GALAP herbicidal rating (GALAP (Galium); rate 0.0313 kg/ha): 2.0; GALAP herbicidal rating (GALAP (Galium); rate 0.0625 kg/ha): 4.0; GALAP herbicidal rating (GALAP (Galium); rate 0.1250 kg/ha): 7.0; TRZAWR herbicidal rating ([2]; rate 0.0156 kg/ha): 3.0; TRZAWR herbicidal rating ([2]; rate 0.0313 kg/ha): 3.5; TRZAWR herbicidal rating ([2]; rate 0.0625 kg/ha): 4.5; TRZAWR herbicidal rating ([2]; rate 0.1250 kg/ha): 5.0; AMBEL herbicidal rating (AMBEL (Ragweed, Common); rate 0.0156 kg/ha): 4.0; AMBEL herbicidal rating (AMBEL (Ragweed, Common); rate 0.0313 kg/ha): 9.0; AMBEL herbicidal rating (AMBEL (Ragweed, Common); rate 0.0625 kg/ha): 9.0; AMBEL herbicidal rating (AMBEL (Ragweed, Common); rate 0.1250 kg/ha): 9.0
5 | CC(C)OC(=O)CC1SC(=Nc2cc(-n3c(=O)cc(C(F)(F)F)n(C)c3=O)c(F)cc2Cl)N(C)C1=O (stereo not drawn) [Compound 89, Isopropyl 2-{{2-chloro-5-[3,6-dihydro-3-methyl-2,6-dioxo-4-(trifluoromethyl)-1(2H)-pyrimidinyl]-4-fluorophenyl}imino}-3-methyl-4-oxo-5-thiazolidineacetate] | 3.0 | – | – | 5.5 | – | – | 4.0 | – | – | 9.0 | 9.0 | 9.0 | 9.0 | 4.0 | 5.0 | 9.0 | 9.0 | 9.0 | 9.0 | 9.0 | CHEAL rating ([1]; 0.0156 kg/ha): 8.0; CHEAL rating ([1]; 0.0625 kg/ha): 9.0; CHEAL rating ([1]; 0.5000 kg/ha): 9.0; GALAP herbicidal rating (GALAP (Galium); rate 0.0313 kg/ha): 4.0; GALAP herbicidal rating (GALAP (Galium); rate 0.0625 kg/ha): 5.0; GALAP herbicidal rating (GALAP (Galium); rate 0.1250 kg/ha): 9.0; TRZAWR herbicidal rating ([2]; rate 0.0313 kg/ha): 7.0; TRZAWR herbicidal rating ([2]; rate 0.0625 kg/ha): 7.0; TRZAWR herbicidal rating ([2]; rate 0.1250 kg/ha): 7.0; AMBEL herbicidal rating (AMBEL (Ragweed, Common); rate 0.0313 kg/ha): 9.0; AMBEL herbicidal rating (AMBEL (Ragweed, Common); rate 0.0625 kg/ha): 9.0; AMBEL herbicidal rating (AMBEL (Ragweed, Common); rate 0.1250 kg/ha): 9.0
6 | C#CCOC(=O)CC1SC(=Nc2cc(-n3c(=O)cc(C(F)(F)F)n(C)c3=O)c(F)cc2Cl)N(C)C1=O (stereo not drawn) [Compound 90, 2-Propynyl 2-{{2-chloro-5-[3,6-dihydro-3-methyl-2,6-dioxo-4-(trifluoromethyl)-1(2H)-pyrimidinyl]-4-fluorophenyl}imino}-3-methyl-4-oxo-5-thiazolidineacetate] | 5.0 | 7.0 | 7.0 | 5.5 | 7.0 | 7.5 | 9.0 | 9.0 | 9.0 | 9.0 | 9.0 | 9.0 | 9.0 | 4.0 | 6.0 | 9.0 | 9.0 | 7.0 | 9.0 | 9.0 | CHEAL rating ([1]; 0.0625 kg/ha): 9.0
7 | CN1C(=O)C(CC(=O)Nc2ccccc2)SC1=Nc1cc(-n2c(=O)cc(C(F)(F)F)n(C)c2=O)c(F)cc1Cl (stereo not drawn) [Compound 91, 2-{{2-Chloro-5-[3,6-dihydro-3-methyl-2,6-dioxo-4-(trifluoromethyl)-1(2H)-pyrimidinyl]-4-fluorophenyl}imino}-3-methyl-4-oxo-5-thiazolidineacetanilide] | 0.0 | 0.0 | 0.0 | 2.5 | 3.0 | 4.0 | 0.0 | 0.0 | 4.0 | 9.0 | 9.0 | 9.0 | 9.0 | 0.0 | 0.0 | 0.0 | 0.0 | – | 4.0 | 9.0 | –
